#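 How tested: cells in 96-well plates exposed to compound for 48 hours at five concentrations. GI50 marks 50% less growth.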 Calls of active or inactive are those of the source. No stated cut-off is given here; in the data, active = GI50 up to about 1.1 µM and inactive = higher. Where a SMILES comes first, the peptide text is derived from it. [ ]: non-standard residue; d: D form. The star is where a group is joined. Cbz = O=C(OCc1ccccc1)*; Aib = CC(C)(N)C(=O)O; OBn = c1ccc(CO*)cc1
# Tests used:
# Test in all cases: inhibition of tumour cell growth, NCI panel, 48 h
# IGROV-1 = tested on: IGROV-1
# Malme-3M = tested on: Malme-3M
# UACC-62 = tested on: UACC-62
# SF-539 = tested on: SF-539
# COLO 205 = tested on: COLO 205
# T47D = tested on: T47D
# PC-3 = tested on: PC-3
# KM12 = tested on: KM12
# M14 = tested on: M14
# ACHN = tested on: ACHN
# HOP-92 = tested on: HOP-92
# OVCAR-4 = tested on: OVCAR-4
# A549 = tested on: A549
# CCRF-CEM = tested on: CCRF-CEM
# SK-OV-3 = tested on: SK-OV-3
# OVCAR-5 = tested on: OVCAR-5
# OVCAR-8 = tested on: OVCAR-8
# MOLT-4 = tested on: MOLT-4
# HL-60 = tested on: HL-60
# MDA-MB-231 = tested on: MDA-MB-231
# NCI-H226 = tested on: NCI-H226
# RXF 393 = tested on: RXF 393
# SK-MEL-5 = tested on: SK-MEL-5
# HCT-15 = tested on: HCT-15
# LOX IMVI = tested on: LOX IMVI
# MDA-N = tested on: MDA-N
# UO-31 = tested on: UO-31
# U-251 = tested on: U-251
# SF-295 = tested on: SF-295
# CAKI-1 = tested on: CAKI-1
# NCI-H23 = tested on: NCI-H23
# SR = tested on: SR
# SF-268 = tested on: SF-268
# Hs-578T = tested on: Hs-578T
# 786-0 = tested on: 786-0
# UACC-257 = tested on: UACC-257
# TK-10 = tested on: TK-10
# HOP-62 = tested on: HOP-62
# DU-145 = tested on: DU-145
# SK-MEL-28 = tested on: SK-MEL-28
# MCF7 = tested on: MCF7
# HCT-116 = tested on: HCT-116
# NCI-H522 = tested on: NCI-H522
# HT-29 = tested on: HT-29
# SK-MEL-2 = tested on: SK-MEL-2
# NCI/ADR-RES = tested on: NCI/ADR-RES
# SNB-19 = tested on: SNB-19
# EKVX = tested on: EKVX
# SN12C = tested on: SN12C
# SW-620 = tested on: SW-620
# BT-549 = tested on: BT-549
# RPMI-8226 = tested on: RPMI-8226
# HCC 2998 = tested on: HCC 2998
# MDA-MB-435 = tested on: MDA-MB-435
# OVCAR-3 = tested on: OVCAR-3
# K562 = tested on: K562
# NCI-H460 = tested on: NCI-H460
# A498 = tested on: A498
# SNB-75 = tested on: SNB-75
smiles,measurement,setting,value
O=C1NC(N2CCCCC2)=N/C1=C\c1ccc(Cl)cc1,GI50,IGROV-1,25.9 µM (inactive)
same,GI50,Malme-3M,16.5 µM (inactive)
same,GI50,UACC-62,26.5 µM (inactive)
same,GI50,SF-539,94 µM (inactive)
same,GI50,COLO 205,74.5 µM (inactive)
same,GI50,T47D,41.5 µM (inactive)
same,GI50,PC-3,37.1 µM (inactive)
same,GI50,KM12,25.1 µM (inactive)
same,GI50,M14,66.8 µM (inactive)
same,GI50,ACHN,36.4 µM (inactive)
same,GI50,HOP-92,13 µM (inactive)
same,GI50,OVCAR-4,68.4 µM (inactive)
same,GI50,A549,38.5 µM (inactive)
same,GI50,CCRF-CEM,39.7 µM (inactive)
same,GI50,SK-OV-3,> 100 µM (inactive)
same,GI50,OVCAR-5,> 100 µM (inactive)
same,GI50,OVCAR-8,20.2 µM (inactive)
same,GI50,MOLT-4,> 100 µM (inactive)
same,GI50,HL-60,> 100 µM (inactive)
same,GI50,MDA-MB-231,34.1 µM (inactive)
same,GI50,NCI-H226,22.3 µM (inactive)
same,GI50,RXF 393,> 100 µM (inactive)
same,GI50,SK-MEL-5,35.5 µM (inactive)
same,GI50,HCT-15,43.1 µM
same,GI50,LOX IMVI,34.5 µM (inactive)
same,GI50,MDA-N,71 µM (inactive)
same,GI50,UO-31,34.7 µM (inactive)
same,GI50,U-251,44.5 µM (inactive)
same,GI50,SF-295,60.5 µM (inactive)
same,GI50,CAKI-1,> 100 µM (inactive)
same,GI50,NCI-H23,37.2 µM (inactive)
same,GI50,SR,> 100 µM (inactive)
same,GI50,SF-268,38.2 µM (inactive)
same,GI50,Hs-578T,28.5 µM (inactive)
same,GI50,786-0,28.7 µM (inactive)
same,GI50,UACC-257,36.6 µM (inactive)
same,GI50,TK-10,30.2 µM (inactive)
same,GI50,HOP-62,46.7 µM (inactive)
same,GI50,DU-145,44.1 µM (inactive)
same,GI50,SK-MEL-28,92 µM (inactive)
same,GI50,MCF7,47.2 µM (inactive)
same,GI50,HCT-116,26.5 µM (inactive)
same,GI50,NCI-H522,21 µM (inactive)
same,GI50,HT-29,16.6 µM (inactive)
same,GI50,SK-MEL-2,> 100 µM (inactive)
same,GI50,NCI/ADR-RES,22 µM (inactive)
same,GI50,SNB-19,37 µM (inactive)
same,GI50,EKVX,26.3 µM (inactive)
same,GI50,SN12C,72.6 µM (inactive)
same,GI50,SW-620,68.4 µM (inactive)
same,GI50,BT-549,71.4 µM (inactive)
same,GI50,RPMI-8226,66.2 µM (inactive)
same,GI50,HCC 2998,19.8 µM (inactive)
same,GI50,MDA-MB-435,60.4 µM (inactive)
same,GI50,OVCAR-3,26.4 µM (inactive)
CC(NC(=O)C(C)(C)NC(=O)C(CC(=O)OCc1ccccc1)NC(=O)OCc1ccccc1)C(N)=O (stereo not given) (Cbz-Asp(OBn)-[Aib]-Ala-NH2; configuration not given here),GI50,IGROV-1,> 100 µM (inactive)
same,GI50,Malme-3M,> 100 µM (inactive)
same,GI50,UACC-62,> 100 µM (inactive)
same,GI50,SF-539,> 100 µM (inactive)
same,GI50,COLO 205,> 100 µM (inactive)
same,GI50,T47D,> 100 µM (inactive)
same,GI50,PC-3,> 100 µM (inactive)
same,GI50,KM12,> 100 µM (inactive)
same,GI50,M14,> 100 µM (inactive)
same,GI50,ACHN,> 100 µM (inactive)
same,GI50,HOP-92,> 100 µM (inactive)
same,GI50,OVCAR-4,> 100 µM (inactive)
same,GI50,A549,> 100 µM (inactive)
same,GI50,CCRF-CEM,> 100 µM (inactive)
same,GI50,SK-OV-3,> 100 µM (inactive)
same,GI50,OVCAR-5,> 100 µM (inactive)
same,GI50,OVCAR-8,> 100 µM (inactive)
same,GI50,MOLT-4,> 100 µM (inactive)
same,GI50,HL-60,> 100 µM (inactive)
same,GI50,MDA-MB-231,> 100 µM (inactive)
same,GI50,NCI-H226,> 100 µM (inactive)
same,GI50,RXF 393,> 100 µM (inactive)
same,GI50,SK-MEL-5,> 100 µM (inactive)
same,GI50,HCT-15,> 100 µM
same,GI50,LOX IMVI,> 100 µM (inactive)
same,GI50,MDA-N,> 100 µM (inactive)
same,GI50,UO-31,> 100 µM (inactive)
same,GI50,U-251,> 100 µM (inactive)
same,GI50,SF-295,43 µM (inactive)
same,GI50,CAKI-1,> 100 µM (inactive)
same,GI50,NCI-H23,> 100 µM (inactive)
same,GI50,SR,> 100 µM (inactive)
same,GI50,SF-268,> 100 µM (inactive)
same,GI50,Hs-578T,> 100 µM (inactive)
same,GI50,786-0,> 100 µM (inactive)
same,GI50,K562,> 100 µM (inactive)
same,GI50,UACC-257,> 100 µM (inactive)
same,GI50,TK-10,> 100 µM (inactive)
same,GI50,HOP-62,> 100 µM (inactive)
same,GI50,DU-145,> 100 µM (inactive)
same,GI50,SK-MEL-28,> 100 µM (inactive)
same,GI50,MCF7,> 100 µM (inactive)
same,GI50,HCT-116,> 100 µM (inactive)
same,GI50,NCI-H522,> 100 µM (inactive)
same,GI50,HT-29,> 100 µM (inactive)
same,GI50,SK-MEL-2,> 100 µM (inactive)
same,GI50,NCI/ADR-RES,> 100 µM (inactive)
same,GI50,SNB-19,> 100 µM (inactive)
same,GI50,NCI-H460,> 100 µM (inactive)
same,GI50,EKVX,> 100 µM (inactive)
same,GI50,SN12C,> 100 µM (inactive)
same,GI50,SW-620,> 100 µM (inactive)
same,GI50,BT-549,> 100 µM (inactive)
same,GI50,RPMI-8226,> 100 µM (inactive)
same,GI50,HCC 2998,> 100 µM (inactive)
same,GI50,MDA-MB-435,> 100 µM (inactive)
same,GI50,OVCAR-3,> 100 µM (inactive)
CC1=Nc2sc3c(c2C2=NCCN12)CCCC3,GI50,IGROV-1,18.3 µM (inactive)
same,GI50,Malme-3M,25.7 µM (inactive)
same,GI50,UACC-62,15.3 µM (inactive)
same,GI50,COLO 205,32.3 µM (inactive)
same,GI50,T47D,32.7 µM (inactive)
same,GI50,PC-3,20 µM (inactive)
same,GI50,KM12,16.8 µM (inactive)
same,GI50,ACHN,25.8 µM (inactive)
same,GI50,OVCAR-4,42.4 µM (inactive)
same,GI50,OVCAR-5,30.7 µM (inactive)
same,GI50,OVCAR-8,15.3 µM (inactive)
same,GI50,MOLT-4,26.1 µM (inactive)
same,GI50,HL-60,22.8 µM (inactive)
same,GI50,MDA-MB-231,33.3 µM (inactive)
same,GI50,NCI-H226,15.1 µM (inactive)
same,GI50,RXF 393,31.3 µM (inactive)
same,GI50,SK-MEL-5,28.2 µM (inactive)
same,GI50,HCT-15,29.9 µM
same,GI50,LOX IMVI,17.6 µM (inactive)
same,GI50,MDA-N,22.3 µM (inactive)
same,GI50,A498,39.9 µM (inactive)
same,GI50,SNB-75,37.2 µM (inactive)
same,GI50,UO-31,17.1 µM (inactive)
same,GI50,U-251,29 µM (inactive)
same,GI50,SF-295,33.5 µM (inactive)
same,GI50,CAKI-1,22.9 µM (inactive)
same,GI50,NCI-H23,18.7 µM (inactive)
same,GI50,SR,23.2 µM (inactive)
same,GI50,SF-268,52.2 µM (inactive)
same,GI50,Hs-578T,27.5 µM (inactive)
same,GI50,786-0,21.8 µM (inactive)
same,GI50,K562,23.6 µM (inactive)
same,GI50,UACC-257,20.2 µM (inactive)
same,GI50,TK-10,36.8 µM (inactive)
same,GI50,HOP-62,40.6 µM (inactive)
same,GI50,DU-145,30.5 µM (inactive)
same,GI50,SK-MEL-28,28.6 µM (inactive)
same,GI50,MCF7,23.7 µM (inactive)
same,GI50,HCT-116,20.9 µM (inactive)
same,GI50,NCI-H522,19.5 µM (inactive)
same,GI50,HT-29,18.6 µM (inactive)
same,GI50,SK-MEL-2,35.8 µM (inactive)
same,GI50,NCI/ADR-RES,14.8 µM (inactive)
same,GI50,SNB-19,39.6 µM (inactive)
same,GI50,NCI-H460,19.7 µM (inactive)
same,GI50,EKVX,23.4 µM (inactive)
same,GI50,SN12C,29.9 µM (inactive)
same,GI50,SW-620,25.4 µM (inactive)
same,GI50,BT-549,19.1 µM (inactive)
same,GI50,RPMI-8226,19.8 µM (inactive)
same,GI50,HCC 2998,29.9 µM (inactive)
same,GI50,MDA-MB-435,34 µM (inactive)
same,GI50,OVCAR-3,28.2 µM (inactive)

# From ChEMBL document CHEMBL1201862, “PubChem BioAssay data set” (2004)
